Results published in patent publication US10329302B2, “Bicyclic-fused heteroaryl or aryl compounds” (Pfizer Inc., priority 2014, dated 2019).
pIC50: −log10 of the molar value. Like-named read-outs stand apart in the source and are kept apart here.

How the values were obtained:
[1] = system: R848-induced TNFα production by human peripheral blood mononuclear cells (PBMCs); experiment: R848 Induced TNFα in Human PBMC Assay; format: cell-based; conditions: for IC50: Homo sapiens, PBMC, 3 h, read-out: R848-induced TNFa PBMC IC50 (nM); for pIC50: human PBMC, absence of serum, 3 hours, read-out: R848-induced TNFa PBMC IC50
Excerpt: R848 Induced TNFα in Human PBMC Assay.
This protocol is for R848-induced TNFα production by human peripheral blood mononuclear cells (PBMCs). […] The assay is used to assess cell-based potency of small molecule inhibitors of IRAK4 in the absence of serum.
The PBMCs in the interphase layer were collected and washed with PBS via centrifugation multiple times until the supernatant is clear. The purified PBMCs were re-suspended in RPMI (Roswell Park Memorial Institute) media (Sigma-Aldrich).
For the assay, a compound dilution plate containing a top concentration of 4 mM compound in DMSO was serially diluted 4-fold for 11 times. 250 nL of the compound dilution plate was spotted into a 384-well, flat bottom with lid, TC-treated, black with clear bottom, sterile, polystyrene plate (Corning Life Sciences).
10 μL of anti-TNFα antibody labeled with MSD SULFO-TAG at 50 μg/mL was added to each well and allowed to incubate overnight at 4° C.

[2] = biological target: human IRAK4 FL (Full Length) (Homo sapiens (Human), UniProt Q9NWZ3); experiment: IRAK4 Enzymatic DELFIA Assay, Protocol A; format: biochemical
[3] = human IRAK4 FL, 0.6 mM ATP (KM), read-out: IRAK4 DELFIA Protocol A IC50

human IRAK4 FL (Full Length), sequence (Q9NWZ3 whole entry): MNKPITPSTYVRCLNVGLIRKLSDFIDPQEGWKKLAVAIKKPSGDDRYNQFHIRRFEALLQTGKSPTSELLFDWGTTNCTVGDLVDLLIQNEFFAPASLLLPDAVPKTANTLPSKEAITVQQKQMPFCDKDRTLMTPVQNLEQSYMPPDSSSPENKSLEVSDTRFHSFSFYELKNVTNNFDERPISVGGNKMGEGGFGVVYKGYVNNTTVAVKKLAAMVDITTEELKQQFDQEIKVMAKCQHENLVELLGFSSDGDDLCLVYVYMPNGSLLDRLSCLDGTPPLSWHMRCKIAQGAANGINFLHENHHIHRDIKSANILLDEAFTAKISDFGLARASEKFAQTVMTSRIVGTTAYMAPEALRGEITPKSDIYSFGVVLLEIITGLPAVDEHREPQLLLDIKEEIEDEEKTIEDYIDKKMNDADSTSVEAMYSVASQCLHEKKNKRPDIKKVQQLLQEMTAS

Structure (SMILES)	IC50 [1]	pIC50 [2, 3]	pIC50 [1]	pIC50 [2]
CC[C@]1(F)C[C@@H](COc2nccc3cc(C(N)=O)c(OC)cc23)NC1=O [Example 257, 1-{[(2S,4S)-4-ethyl-4-fluoro-5-oxopyrrolidin-2-yl]methoxy}-7-methoxyisoquinoline-6-carboxamide]	60 nM	8.17		
COc1cc2c(OC[C@@H]3CC(Cc4ccccc4)C(=O)N3)nccc2cc1C(N)=O (stereo partly drawn) [Example 258, 1-{[(2S)-4-benzyl-5-oxopyrrolidin-2-yl]methoxy}-7-methoxyisoquinoline-6-carboxamide]	2930 nM	6.85		
CC[C@]1(F)C[C@@H](COc2ccnc3cc(C(N)=O)c(OC)cc23)NC1=O [Example 259, 4-{[(2S,4S)-4-ethyl-4-fluoro-5-oxopyrrolidin-2-yl]methoxy}-6-methoxyquinoline-7-carboxamide]	120 nM	8.51		
CC[C@@]1(F)C[C@@H](COc2ccnc3cc(C(N)=O)c(OC)cc23)NC1=O [Example 260, 4-{[(2S,4R)-4-ethyl-4-fluoro-5-oxopyrrolidin-2-yl]methoxy}-6-methoxyquinoline-7-carboxamide]	6280 nM	6.69		
COc1cc2c(OC[C@H]3NC(=O)[C@H]4[C@@H]3C4(C)C)nccc2cc1C(N)=O [Example 263, 1-{[(1R,2S,5S)-6,6-dimethyl-4-oxo-3-azabicyclo[3.1.0]hex-2-yl]methoxy}-7-methoxyisoquinoline-6-carboxamide]	496 nM	7.10		
COc1cc2c(OCC3(C)COC(=O)N3)nccc2cc1C(N)=O (stereo not shown) [Example 266, 7-methoxy-1-[(4-methyl-2-oxo-1,3-oxazolidin-4-yl)methoxy]isoquinoline-6-carboxamide]	394 nM	7.13		
COc1cc2c(OC[C@@H]3C[C@@H](CC(F)(F)F)C(=O)N3)nccc2cc1C(N)=O [Example 267, 7-methoxy-1-{[(2S,4S)-5-oxo-4-(2,2,2-trifluoroethyl)pyrrolidin-2-yl]methoxy}isoquinoline-6-carboxamide]	158 nM	7.82		
COc1cc2c(OC[C@@H]3C[C@](C)(F)C(=O)N3)ccnc2cc1C(N)=O [Example 268, 4-{[(2S,4S)-4-fluoro-4-methyl-5-oxopyrrolidin-2-yl]methoxy}-6-methoxyquinoline-7-carboxamide]	175 nM	8.85		
CC(C)Oc1cc2c(OC[C@@H]3C[C@](C)(F)C(=O)N3)ccnc2cc1C(N)=O [Example 269, 4-{[(2S,4S)-4-fluoro-4-methyl-5-oxopyrrolidin-2-yl]methoxy}-6-(propan-2-yloxy)quinoline-7-carboxamide]	104 nM	9.22		
COc1cc2c(OC[C@H]3NC(=O)[C@@H](F)[C@H]3C)nccc2cc1C#N [Example 272, 1-{[(2S,3S,4S)-4-fluoro-3-methyl-5-oxopyrrolidin-2-yl]methoxy}-7-methoxyisoquinoline-6-carbonitrile]	2470 nM	6.36		
COc1cc2c(OC[C@@H]3C[C@@](F)(CCF)C(=O)N3)ccnc2cc1C(N)=O [Example 274, 4-{[(2S,4R)-4-fluoro-4-(2-fluoroethyl)-5-oxopyrrolidin-2-yl]methoxy}-6-methoxyquinoline-7-carboxamide]	748 nM	8.66		
COc1cc2c(OC[C@H]3C[C@@H](F)C(=O)N3)nccc2cc1C(N)=O [Example 275, 1-{[(2R,4R)-4-fluoro-5-oxopyrrolidin-2-yl]methoxy}-7-methoxyisoquinoline-6-carboxamide]	5140 nM	6.92		
COc1cc2c(OC[C@@H]3C[C@@](F)(CCF)C(=O)N3)nccc2cc1C(N)=O [Example 276, 1-{[(2S,4R)-4-fluoro-4-(2-fluoroethyl)-5-oxopyrrolidin-2-yl]methoxy}-7-methoxyisoquinoline-6-carboxamide]	107 nM	8.39		
CCOc1cc2c(OC[C@@H]3C[C@](C)(F)C(=O)N3)nccc2cc1C(N)=O [Example 278, 7-ethoxy-1-{[(2S,4S)-4-fluoro-4-methyl-5-oxopyrrolidin-2-yl]methoxy}isoquinoline-6-carboxamide]	299 nM	8.07		
CCOc1cc2c(OC[C@H]3NC(=O)[C@@H](F)[C@H]3C)ccnc2cc1C(N)=O [Example 279, 6-ethoxy-4-{[(2S,3S,4S)-4-fluoro-3-methyl-5-oxopyrrolidin-2-yl]methoxy}quinoline-7-carboxamide]	212 nM	8.92		
C[C@@H]1[C@H](F)C(=O)N[C@@H]1COc1nccc2cc(C(N)=O)c(OC3CC3)cc12 [Example 281, 7-(cyclopropyloxy)-1-{[(2S,3S,4S)-4-fluoro-3-methyl-5-oxopyrrolidin-2-yl]methoxy}isoquinoline-6-carboxamide]		7.96	6.90	

Structure (SMILES)	IC50 [1]	pIC50 [2, 3]	pIC50 [1]	pIC50 [2]
CCOc1cc2c(OC[C@H]3NC(=O)[C@@H]4C[C@H]34)nccc2cc1C(N)=O [Example 282, 7-ethoxy-1-{[(1S,2S,5R)-4-oxo-3-azabicyclo[3.1.0]hex-2-yl]methoxy}isoquinoline-6-carboxamide]	191 nM	7.96		
COc1cc2c(OC[C@H]3NC(=O)[C@H]4[C@@H]3C4(Cl)Cl)nccc2cc1C(N)=O [Example 311, 1-{[(1S,2S,5R)-6,6-dichloro-4-oxo-3-azabicyclo[3.1.0]hex-2-yl]methoxy}-7-methoxyisoquinoline-6-carboxamide]	1080 nM	6.64		
CCC[C@@H]1CC(=O)N[C@@H]1COc1nccc2cc(C(N)=O)c(OC)cc12 [Example 312, 7-methoxy-1-{[(2S,3R)-5-oxo-3-propylpyrrolidin-2-yl]methoxy}isoquinoline-6-carboxamide]	26 nM	8.89		
COC[C@@H]1[C@H]2C(=O)N[C@H](COc3nccc4cc(C(N)=O)c(OC)cc34)[C@@H]12 [Example 313, 7-methoxy-1-{[(1S,2S,5S)-6-(methoxymethyl)-4-oxo-3-azabicyclo[3.1.0]hex-2-yl]methoxy}isoquinoline-6-carboxamide]	1590 nM	6.68		
COC[C@H]1[C@H]2C(=O)N[C@H](COc3nccc4cc(C(N)=O)c(OC)cc34)[C@@H]12 [Example 314, 7-methoxy-1-{[(1S,2S,5S)-6-(methoxymethyl)-4-oxo-3-azabicyclo[3.1.0]hex-2-yl]methoxy}isoquinoline-6-carboxamide]	8360 nM	5.70		
COc1cc2c(OC[C@H]3NC(=O)[C@@H]4[C@@H](F)[C@@H]43)nccc2cc1C(N)=O [Example 315, 1-{[(1S,2S,5R)-6-fluoro-4-oxo-3-azabicyclo[3.1.0]hex-2-yl]methoxy}-7-methoxyisoquinoline-6-carboxamide]	45 nM	8.82		
CC[C@@H]1[C@H](F)C(=O)N[C@@H]1COc1ccnc2cc(C(N)=O)c(OC)cc12 [Example 316, 4-{[(2S,3S,4S)-3-ethyl-4-fluoro-5-oxopyrrolidin-2-yl]methoxy}-6-methoxyquinoline-7-carboxamide]	464 nM	6.89		
COc1cc2c(OC[C@H]3NC(=O)[C@]4(F)C[C@H]34)nccc2cc1C(N)=O [Example 317, 1-{[(1R,2S,5S)-5-fluoro-4-oxo-3-azabicyclo[3.1.0]hex-2-yl]methoxy}-7-methoxyisoquinoline-6-carboxamide]			7.66	9.22
C#CCOc1cc2c(OC[C@@H]3CCC(=O)N3)nccc2cc1C(N)=O [Example 318, 1-{[(2S)-5-oxopyrrolidin-2-yl]methoxy}-7-(prop-2-yn-1-yloxy)isoquinoline-6-carboxamide]	17200 nM	5.71		
C=C=COc1cc2c(OC[C@@H]3CCC(=O)N3)nccc2cc1C(N)=O [Example 319, 1-{[(2S)-5-oxopyrrolidin-2-yl]methoxy}-7-(propadienyloxy)isoquinoline-6-carboxamide]	11000 nM	5.71		
COc1cc2c(OC[C@H]3NC(=O)[C@@H]4[C@@H](C(F)F)[C@@H]43)nccc2cc1C(N)=O [Example 320, 1-{[(1R,2S,5S)-6-(difluoromethyl)-4-oxo-3-azabicyclo[3.1.0]hex-2-yl]methoxy}-7-methoxyisoquinoline-6-carboxamide]	11 nM	9.10		
COc1cc2c(OC[C@H]3NC(=O)[C@]4(F)CC[C@H]34)nccc2cc1C(N)=O [Example 322, 1-{[(1R,2S,5S)-5-fluoro-4-oxo-3-azabicyclo[3.2.0]hept-2-yl]methoxy}-7-methoxyisoquinoline-6-carboxamide]	26 nM	8.21		
COc1cc2c(OC[C@H]3NC(=O)[C@@]4(F)[C@@H]3[C@@H]4C)ccnc2cc1C(N)=O [Example 323, 4-{[(1R,2S,5S)-5-fluoro-6-methyl-4-oxo-3-azabicyclo[3.1.0]hex-2-yl]methoxy}-6-methoxyquinoline-7-carboxamide]	30 nM	9.70		
COc1cc2c(OC[C@H]3NC(=O)[C@@H]4[C@@H](F)[C@@H]43)ccnc2cc1C(N)=O [Example 324, 4-{[(1S,2S,5R)-6-fluoro-4-oxo-3-azabicyclo[3.1.0]hex-2-yl]methoxy}-6-methoxyquinoline-7-carboxamide]	277 nM	9.22		
COc1cc2c(OC[C@H]3NC(=O)[C@]4(F)C[C@H]34)ccnc2cc1C(N)=O [Example 325, 4-{[(1R,2S,5S)-5-fluoro-4-oxo-3-azabicyclo[3.1.0]hex-2-yl]methoxy}-6-methoxyquinoline-7-carboxamide]	87 nM	9.40		
COc1cc2c(OC[C@H]3NC(=O)[C@@H]4C[C@H]34)ccnc2cc1C(N)=O [Example 326, 6-methoxy-4-{[(1S,2S,5R)-4-oxo-3-azabicyclo[3.1.0]hex-2-yl]methoxy}quinoline-7-carboxamide]	1200 nM	8.92		
